Reference: the NIST ThermoML archive (doi:10.1021/acs.jced.9b00424)
± gives the expanded uncertainty stated by the source.

Assay: xn = mol fraction of the nth substance listed
Conditions: for surface tension liquid-gas: Pendant drop shape; for viscosity: 100 kPa, Concentric cylinders viscometry; for viscosity / mass density: Liquid; for mass density: 101 kPa, Vibrating tube method

CCCCCCCC(=O)O [octanoic acid] + CC(C)[C@@H]1CC[C@@H](C)C[C@H]1O
Conditions	mass density [kg/m3]	surface tension liquid-gas [mN/m]	viscosity [mPa·s]
297.82 K, x2 = 0	–	30.95 ± 3	–
298 K, x2 = 0.333	–	25.72 ± 3	–
298.11 K, x2 = 0.5	–	26.67 ± 3	–
298.15 K, x2 = 0	917.2 ± 10	–	5.17 ± 0.21
298.15 K, x2 = 0.25	914.7 ± 10	–	7.61 ± 0.32
298.15 K, x2 = 0.333	914.1 ± 10	–	8.81 ± 0.37
298.15 K, x2 = 0.5	912.3 ± 10	–	12.18 ± 0.52
298.15 K, x2 = 0.667	910.3 ± 10	–	17.71 ± 0.78
298.15 K, x2 = 0.75	909.3 ± 10	–	20.82 ± 0.93
298.16 K, x2 = 0.25	–	23.32 ± 3	–
298.2 K, x2 = 0.75	–	23.77 ± 3.1	–
298.24 K, x2 = 0.667	–	20.94 ± 3	–
302.68 K, x2 = 0	–	30.04 ± 3	–
303.04 K, x2 = 0.5	–	25.67 ± 3	–
303.15 K, x2 = 0	910.3 ± 10	–	4.54 ± 0.18
303.15 K, x2 = 0.25	908 ± 10	–	6.46 ± 0.27
303.15 K, x2 = 0.333	907.4 ± 10	–	7.37 ± 0.31
303.15 K, x2 = 0.5	905.7 ± 10	–	9.83 ± 0.42
303.15 K, x2 = 0.667	903.7 ± 10	–	13.65 ± 0.6
303.15 K, x2 = 0.75	902.7 ± 10	–	15.46 ± 0.69
303.69 K, x2 = 0.333	–	24.84 ± 3	–
303.77 K, x2 = 0.667	–	20.53 ± 3	–
303.85 K, x2 = 0.25	–	22.25 ± 3	–
303.88 K, x2 = 0.75	–	23 ± 3	–
307.73 K, x2 = 0.5	–	24.67 ± 3	–
308.15 K, x2 = 0	903.8 ± 10	–	4.01 ± 0.16
308.15 K, x2 = 0.25	901.7 ± 10	–	5.54 ± 0.23
308.15 K, x2 = 0.333	901.1 ± 10	–	6.23 ± 0.26
308.15 K, x2 = 0.5	899.5 ± 10	–	8.06 ± 0.35
308.15 K, x2 = 0.667	897.6 ± 10	–	10.73 ± 0.47
308.15 K, x2 = 0.75	896.6 ± 10	–	11.94 ± 0.54
308.49 K, x2 = 0	–	28.56 ± 3	–
308.53 K, x2 = 0.333	–	24.25 ± 3	–
308.73 K, x2 = 0.25	–	21.65 ± 3	–
308.75 K, x2 = 0.667	–	20.24 ± 3	–
308.78 K, x2 = 0.75	–	22.27 ± 3	–
312.93 K, x2 = 0	–	27.56 ± 3	–
313.15 K, x2 = 0	897.6 ± 10	–	3.59 ± 0.15
313.15 K, x2 = 0.25	895.6 ± 10	–	4.81 ± 0.2
313.15 K, x2 = 0.333	895.1 ± 10	–	5.35 ± 0.22
313.15 K, x2 = 0.5	893.5 ± 10	–	6.72 ± 0.29
313.15 K, x2 = 0.667	891.7 ± 10	–	8.62 ± 0.38
313.15 K, x2 = 0.75	890.6 ± 10	–	9.42 ± 0.42
313.17 K, x2 = 0.333	–	23.9 ± 3	–
313.35 K, x2 = 0.5	–	23.58 ± 3	–
314.11 K, x2 = 0.25	–	21.16 ± 3	–
314.26 K, x2 = 0.667	–	19.94 ± 3	–
314.39 K, x2 = 0.75	–	21.81 ± 3	–
317.8 K, x2 = 0	–	26.06 ± 3	–
318.12 K, x2 = 0.5	–	22.74 ± 3	–
318.15 K, x2 = 0	891.7 ± 10	–	3.2 ± 0.13
318.15 K, x2 = 0.25	889.9 ± 10	–	4.18 ± 0.17
318.15 K, x2 = 0.333	889.4 ± 10	–	4.6 ± 0.19
318.15 K, x2 = 0.5	887.9 ± 10	–	5.63 ± 0.24
318.15 K, x2 = 0.667	886.1 ± 10	–	7 ± 0.31
318.15 K, x2 = 0.75	885 ± 10	–	7.53 ± 0.34
318.42 K, x2 = 0.333	–	23.36 ± 3	–
318.81 K, x2 = 0.667	–	19.7 ± 3	–
318.88 K, x2 = 0.25	–	20.56 ± 3	–
318.9 K, x2 = 0.75	–	21.15 ± 3	–
322.15 K, x2 = 0	–	24.99 ± 3	–
322.96 K, x2 = 0.333	–	22.93 ± 3	–
322.97 K, x2 = 0.5	–	21.75 ± 3	–
323.15 K, x2 = 0	–	–	2.88 ± 0.12
323.15 K, x2 = 0.25	–	–	3.68 ± 0.15
323.15 K, x2 = 0.333	–	–	4 ± 0.17
